Laboratory results taken from ChEMBL document CHEMBL4002587 (Eur J Med Chem, 2017).

Assays:
[1] = target: Prothrombin (Homo sapiens, UniProt P00734); assay: Inhibition of human thrombin preincubated for 10 mins followed by Ac-FVR-AMC substrate addition measured every 20s for 10 mins by fluorescence assay
[2] = Oral bioavailability in human at 10 to 400 mg administered as single dose measured after 24 hrs; type: ADME, organism-based; details: in vivo
[3] = organism: Rattus norvegicus; assay: Anti-thrombotic activity in Sprague-Dawley rat assessed as inhibition of arteriovenous thrombosis weight at 0.5 mg/ml relative to control; type: functional

Row | Compound | IC50 [1] [nM] | bioavailability [2] [%] | inhibition (INH) [3] [%]
1 | Cc1cc(C)cc(N(CCC(=O)O)C(=O)c2ccc3c(c2)nc(CNc2ccc(C(=N)N)cc2F)n3C)c1 | 3.7 | – | –
2 | Cc1ccnc(N(CCC(=O)O)C(=O)c2ccc3c(c2)nc(CNc2ccc(C(=N)N)cc2F)n3C)c1 | 3.33 | – | –
3 | Cn1c(CNc2ccc(C(=N)N)cc2F)nc2cc(C(=O)N(CCC(=O)O)c3ccc(F)c(F)c3)ccc21 | 14.6 | – | –
4 | Cc1cccc(N(CCC(=O)O)C(=O)c2ccc3c(c2)nc(CNc2ccc(C(=N)N)cc2F)n3C)c1 | 2.26 | – | –
5 | Cn1c(CNc2ccc(C(=N)N)cc2)nc2cc(C(=O)N(CCC(=O)O)c3ccccn3)ccc21 [DABIGATRAN] | – | 6.5 | 85.07
6 | Cn1c(CNc2ccc(C(=N)N)cc2F)nc2cc(C(=O)N(CCC(=O)O)c3ccc(F)cc3F)ccc21 | 0.84 | – | –
7 | Cc1cccc(N(CCC(=O)O)C(=O)c2ccc3c(c2)nc(CNc2ccc(C(=N)N)cc2F)n3C)n1 | 1.42 | – | 84.57
8 | Cn1c(CNc2ccc(C(=N)N)cc2F)nc2cc(C(=O)N(CCC(=O)O)c3cc(F)cc(F)c3)ccc21 | 1.18 | – | –
9 | Cc1cc(N(CCC(=O)O)C(=O)c2ccc3c(c2)nc(CNc2ccc(C(=N)N)cc2F)n3C)ccc1F | 3.2 | – | –
10 | Cc1cccc(C)c1N(CCC(=O)O)C(=O)c1ccc2c(c1)nc(CNc1ccc(C(=N)N)cc1F)n2C | 12.8 | – | –
11 | Cc1ccc(C)c(N(CCC(=O)O)C(=O)c2ccc3c(c2)nc(CNc2ccc(C(=N)N)cc2F)n3C)c1 | 3.35 | – | –
12 | Cc1cccc(N(CCC(=O)O)C(=O)c2ccc3c(c2)nc(CNc2ccc(C(=N)N)cc2F)n3C)c1C | 1.54 | – | 84.24
